Assay results taken from US20020049157A1, “Use of proteasome inhibitors for treating cancer, inflammation, autoimmune disease, graft rejection and septic shock” (priority 1998, published 2002).

Assays:
Jurkat cells [1] = test: Jurkat cell viability by trypan blue exclusion; assay type: cell-based; details: 6 μM LAC
Method: (§1) Tonsillar T cells (A, B, and D) and Jurkat cells (C and E) were treated with LAC (10 μM for T cells and 6 μM for Jurkat cells). LAC was added at the beginning of the culture or 40 h after T cell activation as indicated. The cells were harvested at the time points as shown. They were evaluated for their viability with trypan blue exclusion (A, B, and C), and for their mode of cell death according to DNA fragmentation (D and E). The effect of LAC on Jurkat cells was quite similar to that on the activated T cells.

Tonsillar T cells [2] = test: DNA fragmentation (DNA laddering) in T cells; assay type: cell-based, human
Method: as §1, with “E).” for “E). The effect of LAC on Jurkat cells was quite similar to that on the activated T cells.”
(§2) We next employed DNA laddering to study the mode of cell death caused by LAC, and the result of this experiment also reflected the degree of cell death after different treatments. […] After 24 h of LAC treatment, the ladders became less discrete, and this probably reflected further DNA breakdown.
The assay was performed according to a protocol described by Liu et al (Liu et al., 1997, Cell. 89:175) with some modifications. Briefly, 2-6 million cells were re-suspended in 50 μl PBS followed by 300 μl lysis buffer (100 mM Tris-HCl, pH 8.0, 5 mM EDTA, 0.2 M NaCl. 0.2% w/v SDS, and 0.2 mg/ml proteinase K). After overnight incubation at 37° C., 350 μl of 3M NaCl was added to the mixture and cell debris was removed by centrifugation at 13000 g for 20 min at room temperature. DNA in the supernatant was precipitated with an equal volume of 100% ethanol. […]

Jurkat cells [3] = test: DNA fragmentation (DNA laddering) in Jurkat cells; assay type: cell-based; details: LAC 6 μM
Method: as §1, with “E).” for “E). The effect of LAC on Jurkat cells was quite similar to that on the activated T cells.”
Jurkat cells were treated with LAC (6 μM) in the absence or presence of different concentrations of zVAD.fms (0.4 μM to 33.3 μM) for 6 h. The cells were harvested and their DNA was analyzed by a DNA fragmentation assay according to DNA laddering.
as §2
The assay was performed according to a protocol described by Liu et al (Liu et al., 1997, Cell. 89:175) with some modifications. Briefly, 2-6 million cells were re-suspended in 50 μl PBS followed by 300 μl lysis buffer (100 mM Tris-HCl, pH 8.0, 5 mM EDTA, 0.2 M NaCl. 0.2% w/v SDS, and 0.2 mg/ml proteinase K). After overnight incubation at 37° C., 350 μl of 3M NaCl was added to the mixture and cell debris was removed by centrifugation at 13000 g for 20 min at room temperature. DNA in the supernatant was precipitated with an equal volume of 100% ethanol. The pellet was washed with cold 70% ethanol and then dissolved in 20 μl of TE containing 0.2 mg/ml RNase A. After incubation at 37° C. for 2 h, the DNA was resolved on 2% agarose gel and visualized with ethidium bromide staining.

Jurkat cells [4] = test: Proliferation of Jurkat cells; assay type: cell-based; details: data not shown
Jurkat cells [5] = test: Electron microscopy of Jurkat cells; assay type: cell-based; details: LAC 6 μM; 24 h
Method: E and F: Morphology of Jurkat cell treated with LAC. Jurkat cells were cultured in the absence (E) or presence (F) of LAC (6 μM) for 24 h and were evaluated with EM. Arrows indicate condensed nuclei.
Electron microscopy was also employed to examine the mode of cell death induced by LAC. The resting T cells (cells cultured in medium, FIG. 3A), activated T cells (40 h after PHA activation, FIG. 3C), and Jurkat cells (FIG. 3E) were all healthy looking. […] The resting T cells treated with LAC (10 μM) for 24 h were still healthy (FIG. 3B).
T cells and Jurkat cells were examined by electron microscopy as described by Tsao and Duguid (Tsao et al., 1987, Exp. Cell Res. 168:365).

[6] = aqueous solutions of high pH; cited from earlier work
Tonsillar T cells [7] = test: T cell viability by trypan blue exclusion; assay type: cell-based, human; details: for decrease of viability compared with cells without LAC: 10 μM LAC, medium or PHA
Method: as §1, with “E).” for “E). The effect of LAC on Jurkat cells was quite similar to that on the activated T cells.”
The viability of T cells and Jurkat cells after LAC-treatment was first evaluated with trypan blue exclusion. Resting T cells (T cells in medium) or PHA-stimulated T cells were cultured with 10 μM LAC (LAC added at the beginning of the culture).
There was a tendency that the activated T cells were more susceptible to LAC than the resting T cells. This became more evident when LAC was added to T cells 40 h after the PHA activation (FIG. 2B). […] On the other hand, the viability of the resting T cells in medium had only a small decrease (from 98% of the control to 87% of the LAC-treated) after 24 h of LAC presence.

[8] = tested on: chymotrypsin-like activity in the lysate of PBMC; test: LAC-inhibitable chymotrypsin-like activity in PBMC lysates; assay type: biochemical, human; details: 10 μM LAC
Method: Human PBMC were cultured in the absence or presence of 2 μg/ml PHA or 10 nM RAPA for 16 h-70 h as indicated. The cells were then harvested, and the chymotrypsin-like activity of whole cells lysates was assayed in the absence or presence of 20 μM proteasome inhibitor LAC. The data are presented as arbitrary units of fluorescence intensity per 20 μg lysate protein. The experiments were repeated three times and a representative one is shown. Samples are in duplicate and the mean±SD is shown. (A) Total chymotrypsin-like activity in the lysate of PBMC. (B) Lactacystin-inhibitable chymotrypsin-like activity in the lysate of 70 h PBMC. […] LAC was always added to the lysates during the proteinase assay 15 min before the addition of the substrate. The solid bars represent the activity in the presence of LAC. The net proteasome activities are calculated as the total activity minus the remaining activity after the LAC addition.
PBMC were cultured with or without PHA (2 μg/ml) and RAPA (10 nM). After 16 h-70 h, the cells were harvested and sonicated in 300 μl PBS on ice for 40 sec. Twenty micrograms of protein per sample from the cleared lysates were supplemented to 100 μl with 0.1 M Tris buffer (pH 8.2). A proteasome-specific inhibitor lactacystin (Omura et al., 1991, supra; Fentenay et al., 1995, supra) was added at a final concentration of 10 nM in some samples as indicated. The samples were incubated on ice for 15 min, and fluorogenic chymotrypsin substrate sLLVY-MCA was then added at a final concentration of 10 nM. The 20S proteasome, which was prepared as previously described (Friguet et al, 1994, J. Biol. Chem. 269:21639), was used as a positive control in place of cell lysates. The samples were incubated at 37° C. for 15 min and the reaction was terminated by adding 4 μl 2.5 M HCl. The samples were then diluted to 2 ml with 0.1 M Tris pH8.2, and measured for their fluorescent intensity by a PTI fluorometer (Photo Technology International, South Brunswick, N.J.). The excitation wavelength was 380 nm, and the emission wavelength 440 mn.

nitric oxide synthase = test: Northern blot of nitric oxide synthase expression in macrophages; assay type: cell-based, mouse; details: 2 μg/ml LPS
Method: Nitric oxide synthase expression was measured with Northern blot analysis.
BALB/c mice were injected i.p. with 3 ml of 3% thioglycollate broth. Three days later, peritoneal exudate macrophages of the mice were harvested and washed at 170 g for 10 min at 4° C. […]
The expression of inducible nitric oxide synthase at the mRNA level was analyzed by Northern blot as described in our previous publication (Shan et al., 1994, supra). After an overnight culture, the mouse macrophages were harvested and their total cellular RNA was extracted with the guanidine/CsCl method. The RNA (10 μg/lane) was resolved in 1% agarose-formaldehyde gels and blotted onto nylon membranes. A 562-bp fragment corresponding to the mouse iNOS cDNA (Xie et al., 1992, Science 256:225) was obtained by reverse transcription/PCR using the mouse macrophages total RNA as templates. The fragment was labeled with ^32p with random primers and used as a probe for the Northern blot.

CC(=O)N[C@@H](CSC(=O)[C@]1([C@@H](O)C(C)C)NC(=O)[C@H](C)[C@@H]1O)C(=O)O [LAC, lactacystin]
trypan blue positive cells (Jurkat cells [1]; 24 h culture): about 60% | cell death (trypan blue) (Jurkat cells [1]; less than 8 h exposure): did not induce apparent Jurkat cell death | DNA breakdown (DNA laddering) (Tonsillar T cells [2]; activated T cells (40 h post PHA), LAC for additional 9 h): clear DNA ladders | DNA breakdown (DNA laddering) (Tonsillar T cells [2]; resting T cells, 10 μM LAC, 24 h): no apparent DNA breakdown | onset of DNA fragmentation (Jurkat cells [3]): detected as early as 6 h | DNA fragmentation (Jurkat cells [3]; after 16 h): more prominent | proliferation of Jurkat cells (Jurkat cells [4]): potently inhibited | nuclear condensation by electron microscopy (Jurkat cells [5]): frequently observed | stability in aqueous solutions [6]: unstable | decrease of viability compared with cells without LAC (Tonsillar T cells [7]; 16 h culture): < 12% | decrease of viability compared with cells without LAC (Tonsillar T cells [7]; 64 h culture): less than 27% | viability (trypan blue exclusion) (Tonsillar T cells [7]; PHA-stimulated T cells, 10 μM LAC added at beginning, 16 h): 83% | viability (trypan blue exclusion) (Tonsillar T cells [7]; PHA-stimulated T cells, 10 μM LAC added at beginning, 64 h): 63% | viability of the LAC-treated cell (Tonsillar T cells [7]; PHA, LAC 10 μM added once initially, at 40 h): > 80% | viability of the treated cells (Tonsillar T cells [7]; PHA, LAC added once at the beginning, at 16 h): 83 | change of viability (trypan blue exclusion) (Tonsillar T cells [7]; activated T cells, LAC added 40 h after PHA, 9 h culture): did not change the viability significantly | viability (trypan blue exclusion) (Tonsillar T cells [7]; activated T cells, LAC added 40 h after PHA, additional 24 h culture): 46% | viability (trypan blue exclusion) (Tonsillar T cells [7]; resting T cells in medium, 10 μM LAC added at beginning, 16 h): 92% | viability (trypan blue exclusion) (Tonsillar T cells [7]; resting T cells in medium, 10 μM LAC added at beginning, 64 h): 79% | viability (trypan blue exclusion) (Tonsillar T cells [7]; resting T cells in medium, 24 h of LAC presence): 87% | inhibition of total chymotrypsin-like activity in the lysate ([8]; 70 h lysate from PHA plus RAPA-treated PBMC): 86.7% | inhibition of total chymotrypsin-like activity in the lysate ([8]; 70 h lysate from PHA-treated PBMC): 76.7% | inhibition of total chymotrypsin-like activity in the lysate ([8]; 70 h lysate from medium-treated PBMC): 73.4% | expression of mRNA for NO synthase (nitric oxide synthase): decreases the expression of mRNA for NO synthase
